# Results published in patent publication US10709720B2, “Human milk oligosaccharides for modulating inflammation” (priority 2010, dated 2020).
# “Also recorded” adds a separate entry of the source.
# Key:
# [1] = test system: monocyte-derived cytokines; assay: monocyte-derived cytokines in supernatants of HMO-treated peripheral blood mononuclear cells (Example 39); assay type: cell-based, human
# Protocol: (§1) Specifically, either 3′SL or 6′SL is added, at concentrations of 0.1 mg/mL, 0.2 mg/mL, or 0.5 mg/mL to fresh peripheral blood mononuclear cells and incubated at 37° C. in 5% CO2 to pretreat the cells for approximately 24 hours. LNnT is added, at concentrations of 0.1 mg/mL, 0.2 mg/mL, or 1 mg/mL to fresh peripheral blood mononuclear cells and incubated at 37° C. in 5% CO2 to pretreat the cells for approximately 24 hours. Lactose is included as a carbohydrate control. Matched endotoxin unit concentration controls are included to allow differentiation of ingredient effects from inherent low levels of endotoxin. Some variables are then incubated with RSV at a multiplicity of infection (MOI) of 0.1 for approximately 1 hour at 37° C. in 5% in CO2. Uninfected control variables are incubated with medium for approximately 1 hour at 37° C. in 5% CO2. After approximately one hour, fresh medium alone, or fresh medium containing the appropriate concentration of 3′SL, 6′SL, LNnT, lactose, or endotoxin is added to the appropriate tubes and the cells are incubated for 48 hours at 37° C. in 5% CO2. Supernatants are collected at 24 and 48 hours post-infection.
# (§2) Cytokines are measured in supernatants for each variable at 24 and 48 hours to assess the effects of HMOs on the early immune response to RSV. Cytokines are measured using custom Bio-Plex Human cytokine kits from Bio-Rad. Results for interferon-inducible protein 10 (IP-10, also known as CXCL 10) are shown in FIGS. 3 and 4 for 3′SL and 6′SL, and in FIGS. 5 and 6 for LNnT. IP-10 is a CXC chemokine that attracts, binds to and activates the CXCR3 receptor on natural killer cells and memory T cells. IP-10 is expressed by monocytes and a number of other cells, and is induced by interferon. A positive correlation exists between RSV clinical disease severity in children (as measured by: length of hospital stay, fever, and number of days supplemental O2 is required) and serum IP-10. Therefore, a decrease in IP-10 signals a decrease in severity of RSV disease experienced.
# [2] = test system: interferon-inducible protein 10 (IP-10); assay: IP-10 in supernatants of HMO-pretreated, RSV-infected peripheral blood mononuclear cells (Example 39); assay type: cell-based, human; conditions: for IP-10 in virus-infected variables: 24 hour pretreatment, both donors, 24 and 48 hours post-infection; for IP-10 level reached compared with uninfected controls / effectiveness at dampening virus-induced inflammation (decrease in IP-10) compared with 3′SL: RSV-infected PBMCs; for reducing inflammation caused by RSV: pretreatment for 24 hours
# Protocol: as §1, §2
# [3] = test system: respiratory syncytial virus (RSV); assay: in vitro inhibition of viral infectivity, co-incubation of virus with HMO (Example 36); assay type: cell-based; conditions: virus dose about 500-1,000 units/mL; HMOs added at 1 mg/mL or 10 mg/mL
# Protocol: In this Example, the effect of purified human milk oligosaccharides (HMO) on in vitro inhibition of viral infectivity is analyzed.
# Samples are prepared by co-incubation of a uniform virus dose of from about 500 units/mL to about 1,000 units/mL of one of three respiratory viruses: (1) respiratory syncytial virus (RSV); (2) human parainfluenza virus (HPIV3); or (3) H1N1 influenza virus with one of the following HMOs: (1) 3′-sialyllactose (3′SL); (2) 6′-sialyllactose (6′SL); (3) 3′-fucosyllactose (3′FL); (4) 2′-fucosyllactose (2′FL); (5) lacto-N-neotetraose (LNnT); or (6) sialic acid (SA). The HMOs are added at concentrations of either 1 mg/mL or 10 mg/mL.
# [4] = test system: interleukin 10 (IL-10); assay: IL-10 in supernatants of HMO-pretreated peripheral blood mononuclear cells with or without RSV (Example 39); assay type: cell-based, human; conditions: in the presence or absence of RSV
# Protocol: as §1, with “After approximately one hour, fresh medium alone, or fresh medium containing the appropriate concentration of 3′SL, 6′SL, LNnT, lactose, or endotoxin is added to the appropriate tubes and the cells are incubated for 48 hours at 37° C. in 5% CO2. Supernatants are collected at 24 and 48 hours post-infection.” left out
# Cytokines are measured in supernatants for each variable at 24 and 48 hours to assess the effects of HMOs on the early immune response to RSV. Cytokines are measured using custom Bio-Plex Human cytokine kits from Bio-Rad. […] A positive correlation exists between RSV clinical disease severity in children (as measured by: length of hospital stay, fever, and number of days supplemental O2 is required) and serum IP-10. […]
# [5] = test system: H1N1 influenza virus; assay: microbe, parasite or virus in culture; assay type: cell-based
# [6] = test system: H1N1 influenza virus; assay: organism not typed; assay type: cell-based; conditions: HMO at 10 mg/mL, MDCK cells, FIG. 1
# [7] = test system: human parainfluenza virus (HPIV3); assay: microbe, parasite or virus in culture; assay type: cell-based; conditions: virus dose about 500-1,000 units/mL, HMOs added at 1 mg/mL or 10 mg/mL
# [8] = test system: Interleukin 8 (IL-8); assay: IL-8 in supernatants of PBMCs treated with 3′SL and/or 6′SL with or without RSV (Example 40); assay type: cell-based, human; conditions: in the presence of RSV (MOI 0.1); individual 0.1-0.5 mg/mL, combinations 0.2-1.0 mg/mL total; FIG. 11
# Protocol: In this example, the combination of 3′SL and 6′SL to reduce the inflammatory cytokine IL-8 in vitro is analyzed.
# Specifically, 3′SL and 6′SL are added individually at concentrations of 0.1 mg/mL, 0.2 mg/mL, or 0.5 mg/mL or in combination (Combo 1=1 part 3′SL to 1 part 6′SL; Combo 2=1 part 3′SL to 2 parts 6′SL), at total concentrations of 0.2 mg/mL, 0.4 mg/mL, or 1.0 mg/mL to fresh peripheral blood mononuclear cells (PBMCs) and incubated at 37° C. in 5% CO2 to pretreat the cells for approximately 24 hours. Lactose is included as a carbohydrate control. Matched endotoxin unit concentration controls are included to allow differentiation of ingredient effects from inherent low levels of endotoxin. After approximately 24 hours, some variables are then incubated with RSV at a multiplicity of infection (MOI) of 0.1 for approximately 1 hour at 37° C. in 5% in CO2. Uninfected control variables are incubated with medium for approximately 1 hour at 37° C. in 5% CO2. […] Cytokines are measured in supernatants for each variable at 24 and 48 hours to assess the effects of the 3′SL and/or the 6′SL on the early immune response to RSV. Cytokines are measured using custom Bio-Plex Human cytokine kits from Bio-Rad. […]
# [9] = in the presence or absence of the virus
# [10] = virus dose about 500-1,000 units/mL, HMOs added at 1 mg/mL or 10 mg/mL
structure (smiles),measurement,setting,value
"CC(=O)N[C@H]1[C@H](O[C@H]2[C@@H](O)[C@@H](CO)O[C@@H](O[C@H]3[C@H](O)[C@@H](O)C(O)O[C@@H]3CO)[C@@H]2O)O[C@H](CO)[C@@H](O[C@@H]2O[C@H](CO)[C@H](O)[C@H](O)[C@H]2O)[C@@H]1O (mixture of isomers) [LNnT, lacto-N-neotetraose]",immunomodulation: induces and/or modifies production of monocyte-derived cytokines,[1]; [9],immunomodulatory
same,IP-10 in virus-infected variables,[2]; RSV MOI 0.1,clearly downregulates IP-10
same,IP-10 level reached compared with uninfected controls,[2],reduce IP-10 to levels found in uninfected controls
same,effectiveness at dampening virus-induced inflammation (decrease in IP-10) compared with 3′SL,[2],more effective than 3′SL
same,reducing inflammation caused by RSV,[2],effective in reducing inflammation caused by RSV
same,IC50 (mg HMO/mL) RSV,[3],>10 mg HMO/mL
same,IL-10 concentration,[4],increases IL-10 concentration in a dose-dependent manner
same,IC50 (mg HMO/mL) H1N1 Influenza,[5]; [10],>10 mg HMO/mL
"CC(=O)N[C@H]1[C@H]([C@H](O)[C@H](O)CO)OC(O)(C(=O)O)C[C@@H]1O (some centres unmarked) [SA, sialic acid]",inhibition at 10000 µg/mL,[6]; read-out: inhibition of virus infectivity,> 90%
same,IC50,"[7]; Human respirovirus 3, read-out: IC50 (mg HMO/mL) HPIV3",~2000 µg/mL
same,IC50,"[5]; Influenza A virus, H1N1, virus dose about 500-1,000 units/mL, HMOs added at 1 mg/mL or 10 mg/mL, read-out: IC50 (mg HMO/mL) H1N1 Influenza",~5000 µg/mL
"CC(=O)N[C@H]1[C@H]([C@H](O)[C@H](O)CO)O[C@@](OC[C@H]2O[C@@H](O[C@H]3[C@H](O)[C@@H](O)[C@H](O)O[C@@H]3CO)[C@H](O)[C@@H](O)[C@H]2O)(C(=O)O)C[C@@H]1O [6′SL, 6′-sialyllactose]",immunomodulation: induces and/or modifies production of monocyte-derived cytokines,[1]; in the absence of the virus,immunomodulatory
same,IP-10 in virus-infected variables,[2]; RSV MOI 0.1,clearly downregulates IP-10
same,IP-10 level reached compared with uninfected controls,[2],reduce IP-10 to levels found in uninfected controls
same,effectiveness at dampening virus-induced inflammation (decrease in IP-10) compared with 3′SL,[2],more effective at downregulation of IP-10; also recorded: more effective than 3′SL
same,reducing inflammation caused by RSV,[2],effective in reducing inflammation caused by RSV
same,inhibition of virus infectivity,[6],approximately 60%
same,IL-8 concentration with increasing HMO concentration,[8],increase IL-8
same,IC50 (mg HMO/mL) RSV,[3],>10 mg HMO/mL
same,IL-10 concentration,[4],increases interleukin 10 (IL-10) concentration in a dose-dependent manner
same,IC50 (mg HMO/mL) HPIV3,[7],>10 mg HMO/mL
same,IC50 (mg HMO/mL) H1N1 Influenza,[5]; [10],~10 mg HMO/mL
"CC(=O)N[C@H]1[C@H]([C@H](O)[C@H](O)CO)O[C@@](O[C@H]2[C@@H](O)[C@@H](CO)O[C@@H](O[C@H]3[C@H](O)[C@@H](O)C(O)O[C@@H]3CO)[C@@H]2O)(C(=O)O)C[C@@H]1O (some centres unmarked) [3′SL, 3′-sialyllactose]",immunomodulation: induces and/or modifies production of monocyte-derived cytokines,[1]; [9],immunomodulatory
same,"RSV-induced IP-10, Donor B","[2]; RSV MOI 0.1, 0.1-0.5 mg/mL, Donor B",not effective
same,"RSV-induced IP-10, Donor E","[2]; RSV MOI 0.1, 0.1-0.5 mg/mL, Donor E",downregulates RSV-induced IP-10
same,IP-10 in virus-infected variables,[2]; RSV MOI 0.1,dampen RSV-induced IP-10
same,reducing inflammation caused by RSV,[2],effective in reducing inflammation caused by RSV
same,IL-8 concentration with increasing HMO concentration,[8],increase IL-8
same,IC50 (mg HMO/mL) RSV,[3],>10 mg HMO/mL
same,IC50 (mg HMO/mL) HPIV3,[7],>10 mg HMO/mL
same,anti-viral activity against H1N1 influenza virus,[5]; HMO at 1 mg/mL,inhibited
same,IC50 (mg HMO/mL) H1N1 Influenza,[5]; [10],~5 mg HMO/mL
